Assay results as given in publication PMC7156612, “Olinciguat, an Oral sGC Stimulator, Exhibits Diverse Pharmacology Across Preclinical Models of Cardiovascular, Metabolic, Renal, and Inflammatory Disease” (Frontiers in Pharmacology, 2020).
Read-outs that look alike come from different tables or passages of the source.

Legend:
[1] = Olinciguat plasma concentration in hemodynamic study (pooled Wistar and SHR); type: in vivo, rat; details: for concentration at 1 h: male, Wistar and SHR (spontaneously hypertensive rat), pooled, rat, plasma, oral, mean and SEM of 6 animals (n=3 Wistar, n=3 SHR), read-out: average plasma concentration 1 h after dosing on Day 4
Protocol: Blood from i.v. and p.o. dosed rats was collected at 16 timepoints (2 groups of rats, 8 timepoints per group) over 24 h. Samples were collected into potassium ethylenediamine tetraacetic acid (K2EDTA) tubes, centrifuged (3,500 rpm for 10 min) to yield plasma. In the pharmacokinetic studies and in all in vivo studies, olinciguat plasma concentrations were determined by LC-MS/MS. Pharmacokinetic (PK) parameters were calculated by noncompartmental analysis using sparse sampling in Phoenix® WinNonLin® v.6.3 (Certara, Princeton, NJ).
Spontaneously hypertensive rats (SHRs) (n=6, male, 230–250 g, 14 weeks of age) and Wistar rats (n=6, male, 230–250 g, 12 weeks of age) were implanted with telemetry transmitters as described above. Olinciguat was formulated as a suspension in a vehicle containing 0.5% methylcellulose and 0.2% Tween. Rats were p.o. dosed with a dosing volume of 5 ml/kg. In a weekly-dose escalation design, rats were administered vehicle (week 1), olinciguat 1 mg/kg (week 2), 3 mg/kg (week 3), and 10 mg/kg (week 4). For each dose level, rats were dosed once daily (QD) for 4 days. Using plasma from tail vein, olinciguat plasma concentrations were determined at 1, 6, and 24 h post-dose on day 4 and reported as the mean from Wistar (n=3) and SHR (n=3). Hemodynamics were recorded hourly during a 24-h baseline period and over the first 3 days of dosing.

[2] = Mass balance/excretion of [14C]-olinciguat in rats; type: in vivo, rat; details: male Sprague-Dawley rats, single oral dose 3 mg/kg; for equivalents excreted in the feces, percent of administered dose: 3 mg/kg
Protocol: [^14C]-olinciguat, uniformly labeled with [^14C] in the fluorobenzyl ring and having a specific activity of 110 mCi/mmol, was synthesized at American Radiolabeled Chemicals, Inc. (St. Louis, MO). The radiochemical purity was determined to be >99%. Four male Sprague-Dawley rats (approximately 8 weeks old) received a single p.o. dose of 3 mg/kg [^14C]-olinciguat (specific activity 26.6 µCi/mg) in PEG 400:water 60:40 v/v (dosing volume ≤5 ml/kg). Using a single metabolism cage (Nalgene) for each rat, urine and feces were collected for 7 days at 24-h intervals, and cages were rinsed daily. Food was available ad libitum throughout the study, except for the overnight fasting period (16–18 h) before and 4 h after olinciguat administration. Deionized water was available ad libitum. After 7 days, tissues were collected. Urine, feces, liver, kidneys, and cage washes were analyzed to determine material balance.

[3] = Quantitative whole-body autoradiography in Long-Evans rats; type: in vivo, rat; details: single p.o. 3 mg/kg, 14C-derived radioactivity
Protocol: Quantitative whole-body autoradiography (QWBA) assays were performed at QPS, LLC (Newark, DE) as described previously (Solon et al., 2002). Male Long-Evans (LE) rats (218–262 g, n=11, Hilltop Lab Animals, Inc., Scottdale, PA) were studied. All rats were administered a single p.o. dose of [^14C]-olinciguat at a target dose of 3 mg/kg and approximately 200 µCi/kg formulated in PEG 400 in water (60:40 v/v). Immediately prior to euthanasia, blood was obtained via cardiac puncture for plasma radioactivity determinations by liquid scintillation counting. At each timepoint (1, 2, 4, 8, 12, 24, 48, 72, 96, 168, and 504 h post-dose), one rat was euthanized by immersion in a hexane/solid carbon dioxide bath and frozen for at least 15 min for QWBA analysis. Each frozen rat carcass was embedded in a 2% carboxymethylcellulose matrix with a microtome stage at −20°C. Concentrations of radioactivity were used to determine the concentration of compound equivalents in each tissue and in plasma using the Specific Activity of 66.7 µCi/mg of [^14C]-olinciguat. Whole body sections for each rat were mounted on a cardboard backing, covered with thin plastic wrap, and exposed along with calibration standards of [^14C]-glucose at 10 different concentrations (0.00096 to 7.8 µCi/g) to a ^14C-sensitive phosphor imaging plate (Fuji Biomedical, Stamford, CT). Imaging plates were scanned using the Typhoon 9410 image acquisition system (GE/Molecular Dynamics, Sunnyvale, CA, USA). Radioactivity concentration in tissues was quantified by image densitometry using MCID image analysis software (v. 7.0, Interfocus Imaging Ltd) and a standard curve constructed from the integrated response (molecular dynamics counts/mm^2) and the nominal concentrations of [^14C]-glucose standards. Tissue concentration data were obtained for virtually all tissues (see Supplemental Materials). The concentrations of radioactivity were expressed as the microgram equivalents of [^14C]-olinciguat per gram of sample. An upper and lower limit of quantification, determined by using the radioactive concentration of the highest and lowest calibration standards divided by the specific activity of the test article in formulation, was applied to the data. Phoenix® WinNonLin® v.6.3 was used to determine PK parameters, including maximal concentration (Cmax) and area under the curve of all observed points (AUCall). Tissue:plasma AUCall ratios were determined.

[4] = Plasma protein binding (equilibrium dialysis), human; type: in vitro ADME; details: 1 and 10 μM, equilibrium dialysis 18 h, read-out: bound to plasma proteins (converted)
Protocol: Concentrated (10 mM) DMSO stock solutions of olinciguat were diluted to 1 and 10 μM in 2.5 ml of rat (male and female Sprague Dawley) and human plasma. Concentrated [^14C]-labeled olinciguat (1 μl,1 mCi/ml stock concentration) was spiked into each sample and mixed by vortexing. Triplicate 500 μl aliquots of plasma containing [^14C]-labeled olinciguat were transferred to a Rapid Equilibrium Dialysis system and dialyzed (molecular weight cut-off ~8000 Da) against 500 μl of phosphate-buffered saline (PBS) at room temperature for 18 h. Radioactivity of [^14C]-labeled olinciguat in PBS and plasma samples was measured using liquid scintillation counting.

In the case of `NC(=O)[C@](O)(CNc1nc(-c2cc(-c3ccon3)n(Cc3ccccc3F)n2)ncc1F)C(F)(F)F` [olinciguat, (R)-3,3,3-trifluoro-2-(((5-fluoro-2-(1-(2-fluorobenzyl)-5-(isoxazol-3-yl)-1H-pyrazol-3-yl)pyrimidin-4-yl)amino)methyl)-2-hydroxypropanamide], the “Olinciguat concentration (free)” value ([1]; 10 mg/kg, pooled samples from Wistar and SHR, total plasma concentration x 1.0% free) is reported as 1.6–3.3 nM^a,e, the concentration at 1 h ([1]; 1 mg/kg p.o. QD) is reported as 57.3 ± 38.7 nM and the concentration at 1 h ([1]; 3 mg/kg p.o. QD) is reported as 132 ± 30 nM. The concentration at 1 h ([1]; 10 mg/kg p.o. QD) was 245 ± 86 nM, the “administered dose radioactivity recovered in feces and urine within the first 48 h” value [2] was 95% and the “equivalents excreted in the urine, percent of administered dose” value ([2]; over 7 days) was 5.7%. The “equivalents excreted in the feces, percent of administered dose” value ([2]; over 7 days) was > 95%, the “equivalents excreted in the feces, percent of administered dose” value ([2]; over 7 days, listed as [^14C]-olinciguat) was 95.3% and the AUCall blood-to-plasma ratio [3] was 0.73. For the same compound, the “tissue:plasma AUCall ratio, adrenal gland” value [3] was 2.41, the “tissue:plasma AUCall ratio, cecum” value [3] was 4.63 and the “tissue:plasma AUCall ratio, esophagus” value [3] was 2.01. The “tissue:plasma AUCall ratio, kidney cortex” value [3] was 13.6, the “tissue:plasma AUCall ratio, kidney medulla” value [3] was 5.14 and the “tissue:plasma AUCall ratio, liver” value [3] was 50.3. The “tissue:plasma AUCall ratio, remaining eight tissues (all four measured regions of the brain, spinal cord, bone, eye lens)” value [3] was ≤ 0.1, the “tissue:plasma AUCall ratio, small intestine” value [3] was 27.5 and the “tissue:plasma AUCall ratio, urinary bladder” value [3] was 2.62. The “tissue:plasma ratio, aorta” value [3] was 0.92, the “tissue:plasma ratio, brown adipose” value [3] was 1.16 and the “tissue:plasma ratio, heart” value [3] was 0.84. For the same compound, the “tissue:plasma ratio, lung” value [3] was 0.86, the “tissue:plasma ratio, skeletal muscle” value [3] was 0.52 and the “tissue:plasma ratio, white adipose” value [3] was 0.67. It also gave a fraction unbound at 18 h [4] of 0.0199.
